# Data from paper PMC4869175, “Evidence that phytochrome functions as a protein kinase in plant light signalling” (Nature Communications, 2016).
# Legend:
# Assay in all cases: Photoaffinity labelling with 8-azido-ATP (ATP-binding affinity assay)
# Details in all cases: 5 μM 8-azido-ATP; labelling of WT AsphyA with 5 μM assumed as 100%
# [1] = target: T1, D422R AsphyA mutant (full-length) (Avena sativa, UniProt P06593, D422R)
# T1 construct: After preparing purified full-length AsphyA mutants; made in house; host or cells: Pichia pastoris GS115
# Protocol: (§1) Figure 4 Phosphorylation analyses of AsphyA mutants with reduced kinase activity. (a) Kinase activity assays of the AsphyA mutants. In all, 1.0 μg of GST/strep-fused PIF3 (∼0.3 μM) was added as a substrate in reaction mixtures with 1.0 μg of either full-length WT or a mutant (K411L, T418D or D422R) AsphyA protein (∼0.2 μM). (b) Protein–protein interaction analysis between PIF3 and the AsphyA kinase mutants. GST was included as a negative control. (c) ATP-binding affinity assays of AsphyA kinase mutants using photoaffinity labelling with 8-azido-ATP. 1.0 μg of full-length AsphyA protein (∼80 nM) was labelled with the indicated concentrations of 8-azido-ATP. The percentages of 8-azido-ATP labeling were obtained where the labelling of WT AsphyA with 5 μM azido-ATP was assumed as 100%. Error bars represent s.d. from three independent measurements.
# (§2) To investigate ATP-binding to AsphyA proteins, photoaffinity labelling experiments were carried out using 8-N3-ATP-biotin-long chain-hydrazone (8-azido-ATP), which were purchased from Affinity Labeling Technologies, Inc. Purified phytochrome proteins (1.0 μg) were pre-incubated for 30 min on ice in 50 μl of photoaffinity labelling buffer (20 mM Tris-HCl, pH 7.0, 2 mM EDTA, 2 mM MgCl2 and 150 μM ATP), and then 8-azido-ATP was applied with indicated concentrations. […]
# (§3) Supplementary Figure 15. […] Full-length wild-type and mutant AsphyA proteins were labeled with the indicated concentrations of 8-azido-ATP, and the azido-ATP-labeled proteins were detected with avidin-HRP (upper panels).
# (§4) Amounts of AsphyA proteins (ca. 1.0 µg) used in these reactions are shown as loading controls in lower panels, which were analyzed using western blots with oat22 antibody.
# (§5) Phosphorylation analysis of the D422R mutant of A610 (DR/A610). […] Wild-type (A610) and DR/A610 mutant proteins were labeled with the indicated concentrations of 8-azido-ATP, and the 8-azido-ATP labeled proteins were detected with avidin-HRP (upper panel).
# [2] = target: T2, K411L AsphyA mutant (full-length) (Avena sativa, UniProt P06593, K411L)
# T2 construct: After preparing purified full-length AsphyA mutants; made in house; host or cells: Pichia pastoris GS115
# Protocol: as §1, §2, §3, §4, §5
# [3] = target: T3, T418D AsphyA mutant (full-length) (Avena sativa, UniProt P06593, T418D)
# T3 construct: After preparing purified full-length AsphyA mutants; made in house; host or cells: Pichia pastoris GS115
# Protocol: as §1, §2, §3, §4, §5
# T2 sequence (P06593 whole entry K411L): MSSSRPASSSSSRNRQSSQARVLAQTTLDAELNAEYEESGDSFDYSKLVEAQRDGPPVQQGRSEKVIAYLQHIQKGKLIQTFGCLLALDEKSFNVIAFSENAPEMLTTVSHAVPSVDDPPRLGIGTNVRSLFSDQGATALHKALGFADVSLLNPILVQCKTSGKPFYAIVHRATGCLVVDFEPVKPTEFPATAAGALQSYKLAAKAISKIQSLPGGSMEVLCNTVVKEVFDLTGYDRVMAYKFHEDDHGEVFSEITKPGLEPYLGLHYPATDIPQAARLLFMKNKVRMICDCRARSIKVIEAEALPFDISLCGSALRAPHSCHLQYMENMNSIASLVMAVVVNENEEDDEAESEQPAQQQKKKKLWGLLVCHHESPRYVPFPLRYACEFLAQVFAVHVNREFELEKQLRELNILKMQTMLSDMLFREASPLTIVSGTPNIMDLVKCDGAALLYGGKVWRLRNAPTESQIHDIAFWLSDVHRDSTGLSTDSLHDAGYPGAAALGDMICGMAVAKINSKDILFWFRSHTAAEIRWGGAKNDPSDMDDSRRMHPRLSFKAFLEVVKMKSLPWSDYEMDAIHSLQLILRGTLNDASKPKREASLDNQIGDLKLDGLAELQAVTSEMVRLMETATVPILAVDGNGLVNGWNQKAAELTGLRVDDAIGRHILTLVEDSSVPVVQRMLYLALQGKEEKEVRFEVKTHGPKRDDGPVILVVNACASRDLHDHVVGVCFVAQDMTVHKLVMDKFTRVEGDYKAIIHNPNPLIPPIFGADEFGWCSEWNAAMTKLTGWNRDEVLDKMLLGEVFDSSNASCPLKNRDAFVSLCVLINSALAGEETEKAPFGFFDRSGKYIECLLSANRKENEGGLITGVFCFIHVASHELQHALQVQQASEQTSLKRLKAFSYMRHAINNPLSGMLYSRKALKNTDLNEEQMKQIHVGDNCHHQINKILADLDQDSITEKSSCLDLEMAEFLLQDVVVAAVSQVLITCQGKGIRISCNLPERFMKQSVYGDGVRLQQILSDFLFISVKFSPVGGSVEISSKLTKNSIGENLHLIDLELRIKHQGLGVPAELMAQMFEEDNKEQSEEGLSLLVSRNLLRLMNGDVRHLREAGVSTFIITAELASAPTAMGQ
# T1 sequence (P06593 whole entry D422R): as the sequence (P06593 whole entry K411L) above, with L411K, D422R counted along it
# T3 sequence (P06593 whole entry T418D): as the sequence (P06593 whole entry K411L) above, with L411K, T418D counted along it
substance,measurement,setting,value
8-N3-ATP-biotin-long chain-hydrazone [8-azido-ATP],"8-azido-ATP labelling, % of the WT AsphyA",[1],~5%
same,"8-azido-ATP labelling, % of the WT AsphyA",[2],~30%
same,"8-azido-ATP labelling, % of the WT AsphyA",[3],~17%
